Test results: ChEMBL document CHEMBL1155237, “Selective inhibitors of the mutant B-Raf pathway: discovery of a potent and orally bioavailable aminoisoquinoline” (J Med Chem, 2009)

Columns and labels:
[1] = target: 5'-AMP-activated protein kinase catalytic subunit alpha-2 (Homo sapiens) (UniProt P54646); assay: Inhibition of AMPKalpha2 assessed as enzyme activity at 1 uM relative to untreated control; set-up: scale not given: the % may be the effect or the level left
[2] = target: Serine/threonine-protein kinase DCLK1 (Homo sapiens) (UniProt O15075); assay: Inhibition of DCAMKL1 assessed as enzyme activity at 1 uM relative to untreated control; set-up: scale not given: the % may be the effect or the level left
Mus musculus = assay: Inhibition of ERK phosphorylation in human A375 SQ2 cells xenografted CD1 mouse at 2 mg/kg, po qd after 6 hrs; type: functional; details: CD1, A-375, 6 h
[3] = target: Mitogen-activated protein kinase 13 (Homo sapiens) (UniProt O15264); assay: Inhibition of p38delta assessed as enzyme activity at 1 uM relative to untreated control; set-up: scale not given: the % may be the effect or the level left
[4] = target: Fibroblast growth factor receptor 4 (Homo sapiens) (UniProt P22455); assay: Inhibition of FGFR4 assessed as enzyme activity at 1 uM relative to untreated control; set-up: scale not given: the % may be the effect or the level left
[5] = target: Serine/threonine-protein kinase D2 (Homo sapiens) (UniProt Q9BZL6); assay: Inhibition of PRKD2 assessed as enzyme activity at 1 uM relative to untreated control; set-up: scale not given: the % may be the effect or the level left
[6] = target: NUAK family SNF1-like kinase 2 (Homo sapiens) (UniProt Q9H093); assay: Inhibition of SNARK assessed as enzyme activity at 1 uM relative to untreated control; set-up: scale not given: the % may be the effect or the level left
[7] = system: Epidermal growth factor receptor (Homo sapiens), P00533 [G719S]; assay: Inhibition of EGFR G719S mutant assessed as enzyme activity at 1 uM relative to untreated control; type: protein assay; set-up: scale not given: the % may be the effect or the level left
[8] = target: Serine/threonine-protein kinase 35 (Homo sapiens) (UniProt Q8TDR2); assay: Inhibition of STK35 assessed as enzyme activity at 1 uM relative to untreated control; set-up: scale not given: the % may be the effect or the level left
[9] = target: Casein kinase I isoform delta (Homo sapiens) (UniProt P48730); assay: Inhibition of CSNK1D assessed as enzyme activity at 1 uM relative to untreated control; set-up: scale not given: the % may be the effect or the level left
[10] = target: Serine/threonine-protein kinase BRSK2 (Homo sapiens) (UniProt Q8IWQ3); assay: Inhibition of BRSK2 assessed as enzyme activity at 1 uM relative to untreated control; set-up: scale not given: the % may be the effect or the level left
[11] = target: Calcium/calmodulin-dependent protein kinase type 1D (Homo sapiens) (UniProt Q8IU85); assay: Inhibition of CAMK1D assessed as enzyme activity at 1 uM relative to untreated control; set-up: scale not given: the % may be the effect or the level left
[12] = target: NUAK family SNF1-like kinase 1 (Homo sapiens) (UniProt O60285); assay: Inhibition of ARK5 assessed as enzyme activity at 1 uM relative to untreated control; set-up: scale not given: the % may be the effect or the level left
[13] = target: Cyclin-dependent kinase-like 2 (Homo sapiens) (UniProt Q92772); assay: Inhibition of CDKL2 assessed as enzyme activity at 1 uM relative to untreated control; set-up: scale not given: the % may be the effect or the level left
[14] = system: Epidermal growth factor receptor (Homo sapiens), P00533 [UNDEFINED MUTATION]; assay: Inhibition of EGFR L747-E749del A750P assessed as enzyme activity at 1 uM relative to untreated control; type: protein assay; set-up: scale not given: the % may be the effect or the level left
[15] = target: Death-associated protein kinase 2 (Homo sapiens) (UniProt Q9UIK4); assay: Inhibition of DAPK2 assessed as enzyme activity at 1 uM relative to untreated control; set-up: scale not given: the % may be the effect or the level left
[16] = target: Cyclin-dependent kinase 19 (Homo sapiens) (UniProt Q9BWU1); assay: Inhibition of CDK11 assessed as enzyme activity at 1 uM relative to untreated control; set-up: scale not given: the % may be the effect or the level left
[17] = target: Discoidin domain-containing receptor 2 (Homo sapiens) (UniProt Q16832); assay: Inhibition of DDR2 assessed as enzyme activity at 1 uM relative to untreated control; set-up: scale not given: the % may be the effect or the level left
[18] = target: Serine/threonine-protein kinase RIO2 (Homo sapiens) (UniProt Q9BVS4); assay: Inhibition of RIOK2 assessed as enzyme activity at 1 uM relative to untreated control; set-up: scale not given: the % may be the effect or the level left
[19] = target: Casein kinase II subunit alpha' (Homo sapiens) (UniProt P19784); assay: Inhibition of CSNK2A2 assessed as enzyme activity at 1 uM relative to untreated control; set-up: scale not given: the % may be the effect or the level left
[20] = Elimination half life in CD1 mouse; type: ADME, organism-based; details: in vivo, read-out: beta t1/2 (converted)
[21] = target: Phosphatidylinositol 4,5-bisphosphate 3-kinase catalytic subunit gamma isoform (Homo sapiens) (UniProt P48736); assay: Inhibition of PIK3CG assessed as enzyme activity at 1 uM relative to untreated control; set-up: scale not given: the % may be the effect or the level left
[22] = target: Cyclin-dependent kinase 17 (Homo sapiens) (UniProt Q00537); assay: Inhibition of PCTK2 assessed as enzyme activity at 1 uM relative to untreated control; set-up: scale not given: the % may be the effect or the level left
[23] = target: Serine/threonine-protein kinase Nek5 (Homo sapiens) (UniProt Q6P3R8); assay: Inhibition of NEK5 assessed as enzyme activity at 1 uM relative to untreated control; set-up: scale not given: the % may be the effect or the level left
[24] = target: Cyclin-dependent kinase 9 (Homo sapiens) (UniProt P50750); assay: Inhibition of CDK9 assessed as enzyme activity at 1 uM relative to untreated control; set-up: scale not given: the % may be the effect or the level left
[25] = target: Tyrosine-protein kinase JAK1 (Homo sapiens) (UniProt P23458); assay: Inhibition of JAK1 kinase domain 2 assessed as enzyme activity at 1 uM relative to untreated control; set-up: scale not given: the % may be the effect or the level left
[26] = target: Membrane-associated tyrosine- and threonine-specific cdc2-inhibitory kinase (Homo sapiens) (UniProt Q99640); assay: Inhibition of PKMYT1 assessed as enzyme activity at 1 uM relative to untreated control; set-up: scale not given: the % may be the effect or the level left
[27] = target: Casein kinase II subunit alpha (Homo sapiens) (UniProt P68400); assay: Inhibition of CSNK2A1 assessed as enzyme activity at 1 uM relative to untreated control; set-up: scale not given: the % may be the effect or the level left
[28] = target: Focal adhesion kinase 1 (Homo sapiens) (UniProt Q05397); assay: Inhibition of PTK2 assessed as enzyme activity at 1 uM relative to untreated control; set-up: scale not given: the % may be the effect or the level left
[29] = target: Epidermal growth factor receptor (Homo sapiens) (UniProt P04626+P00533+Q15303+P21860); assay: Inhibition of EGFR E746-A750del mutant assessed as enzyme activity at 1 uM relative to untreated control; type: protein assay; set-up: scale not given: the % may be the effect or the level left
[30] = target: Receptor-interacting serine/threonine-protein kinase 1 (Homo sapiens) (UniProt Q13546); assay: Inhibition of RIPK1 assessed as enzyme activity at 1 uM relative to untreated control; set-up: scale not given: the % may be the effect or the level left
[31] = target: Phosphatidylinositol 4,5-bisphosphate 3-kinase catalytic subunit beta isoform (Homo sapiens) (UniProt P42338); assay: Inhibition of PIK3CB assessed as enzyme activity at 1 uM relative to untreated control; set-up: scale not given: the % may be the effect or the level left
[32] = target: Ribosomal protein S6 kinase alpha-1 (Homo sapiens) (UniProt Q15418); assay: Inhibition of RPS6KA1 kinase domain 2 assessed as enzyme activity at 1 uM relative to untreated control; set-up: scale not given: the % may be the effect or the level left
[33] = target: Ephrin type-A receptor 7 (Homo sapiens) (UniProt Q15375); assay: Inhibition of EPHA7 assessed as enzyme activity at 1 uM relative to untreated control; set-up: scale not given: the % may be the effect or the level left
[34] = target: AP2-associated protein kinase 1 (Homo sapiens) (UniProt Q2M2I8); assay: Inhibition of AAK1 assessed as enzyme activity at 1 uM relative to untreated control; set-up: scale not given: the % may be the effect or the level left
[35] = target: Serine/threonine-protein kinase PAK 4 (Homo sapiens) (UniProt O96013); assay: Inhibition of PAK4 assessed as enzyme activity at 1 uM relative to untreated control; set-up: scale not given: the % may be the effect or the level left
[36] = target: RAC-alpha serine/threonine-protein kinase (Homo sapiens) (UniProt P31749); assay: Inhibition of AKT1 assessed as enzyme activity at 1 uM relative to untreated control; set-up: scale not given: the % may be the effect or the level left

Sequence of Phosphatidylinositol 4,5-bisphosphate 3-kinase catalytic subunit gamma isoform (Homo sapiens) (P48736 whole entry, looked up, canonical isoform): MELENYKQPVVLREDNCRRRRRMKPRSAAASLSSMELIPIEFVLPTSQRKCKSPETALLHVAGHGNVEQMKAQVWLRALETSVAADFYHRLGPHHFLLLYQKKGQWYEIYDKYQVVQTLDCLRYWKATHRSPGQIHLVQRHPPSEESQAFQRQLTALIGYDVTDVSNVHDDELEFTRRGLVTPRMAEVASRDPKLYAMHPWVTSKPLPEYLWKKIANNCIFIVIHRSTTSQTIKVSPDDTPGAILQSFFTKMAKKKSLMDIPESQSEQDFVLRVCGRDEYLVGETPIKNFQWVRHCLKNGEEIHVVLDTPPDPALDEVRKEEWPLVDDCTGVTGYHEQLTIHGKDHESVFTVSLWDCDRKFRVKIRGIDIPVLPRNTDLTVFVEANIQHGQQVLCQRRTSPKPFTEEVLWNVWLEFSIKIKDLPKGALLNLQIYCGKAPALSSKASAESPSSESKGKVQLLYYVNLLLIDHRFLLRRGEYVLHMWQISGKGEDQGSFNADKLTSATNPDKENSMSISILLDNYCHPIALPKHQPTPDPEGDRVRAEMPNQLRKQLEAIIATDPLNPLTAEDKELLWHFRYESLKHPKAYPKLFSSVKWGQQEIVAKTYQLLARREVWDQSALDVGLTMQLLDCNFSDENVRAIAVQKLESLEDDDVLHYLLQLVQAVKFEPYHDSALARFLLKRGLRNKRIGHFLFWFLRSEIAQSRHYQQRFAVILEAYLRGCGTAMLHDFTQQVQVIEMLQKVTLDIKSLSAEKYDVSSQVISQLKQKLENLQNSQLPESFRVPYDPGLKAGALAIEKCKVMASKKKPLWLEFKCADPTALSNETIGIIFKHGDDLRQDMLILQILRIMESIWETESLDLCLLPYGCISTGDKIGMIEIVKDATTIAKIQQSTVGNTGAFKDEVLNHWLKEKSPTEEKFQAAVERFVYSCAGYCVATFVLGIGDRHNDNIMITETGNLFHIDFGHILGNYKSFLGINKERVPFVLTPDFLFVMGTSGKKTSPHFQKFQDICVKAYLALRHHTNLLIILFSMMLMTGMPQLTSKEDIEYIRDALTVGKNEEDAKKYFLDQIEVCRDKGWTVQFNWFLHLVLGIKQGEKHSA
Sequence of Calcium/calmodulin-dependent protein kinase type 1D (Homo sapiens) (Q8IU85 whole entry, looked up): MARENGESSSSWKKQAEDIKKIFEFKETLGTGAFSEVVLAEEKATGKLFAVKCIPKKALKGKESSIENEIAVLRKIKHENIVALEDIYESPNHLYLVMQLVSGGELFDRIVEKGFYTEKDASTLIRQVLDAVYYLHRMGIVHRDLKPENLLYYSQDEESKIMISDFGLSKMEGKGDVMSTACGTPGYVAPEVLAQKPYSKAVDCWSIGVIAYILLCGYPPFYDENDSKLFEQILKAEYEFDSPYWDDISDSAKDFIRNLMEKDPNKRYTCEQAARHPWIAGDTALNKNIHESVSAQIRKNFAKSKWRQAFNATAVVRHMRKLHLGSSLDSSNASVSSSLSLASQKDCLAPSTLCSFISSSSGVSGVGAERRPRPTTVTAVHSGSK
Sequence of Cyclin-dependent kinase 17 (Homo sapiens) (Q00537 whole entry, looked up): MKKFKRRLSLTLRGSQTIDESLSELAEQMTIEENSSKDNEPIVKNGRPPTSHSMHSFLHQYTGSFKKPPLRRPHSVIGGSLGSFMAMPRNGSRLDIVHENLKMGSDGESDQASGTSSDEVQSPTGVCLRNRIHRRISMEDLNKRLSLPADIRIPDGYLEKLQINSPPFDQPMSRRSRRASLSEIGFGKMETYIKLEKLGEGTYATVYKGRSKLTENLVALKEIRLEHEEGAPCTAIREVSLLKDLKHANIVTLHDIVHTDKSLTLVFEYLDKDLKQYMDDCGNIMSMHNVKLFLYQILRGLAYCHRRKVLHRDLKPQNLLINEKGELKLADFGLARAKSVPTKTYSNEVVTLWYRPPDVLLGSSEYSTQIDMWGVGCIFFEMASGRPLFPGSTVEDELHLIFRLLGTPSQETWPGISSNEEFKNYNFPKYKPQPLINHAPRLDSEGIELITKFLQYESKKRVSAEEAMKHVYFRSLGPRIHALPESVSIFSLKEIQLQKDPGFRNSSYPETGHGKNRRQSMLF
Sequence of Ephrin type-A receptor 7 (Homo sapiens) (Q15375 28-998 limits assumed): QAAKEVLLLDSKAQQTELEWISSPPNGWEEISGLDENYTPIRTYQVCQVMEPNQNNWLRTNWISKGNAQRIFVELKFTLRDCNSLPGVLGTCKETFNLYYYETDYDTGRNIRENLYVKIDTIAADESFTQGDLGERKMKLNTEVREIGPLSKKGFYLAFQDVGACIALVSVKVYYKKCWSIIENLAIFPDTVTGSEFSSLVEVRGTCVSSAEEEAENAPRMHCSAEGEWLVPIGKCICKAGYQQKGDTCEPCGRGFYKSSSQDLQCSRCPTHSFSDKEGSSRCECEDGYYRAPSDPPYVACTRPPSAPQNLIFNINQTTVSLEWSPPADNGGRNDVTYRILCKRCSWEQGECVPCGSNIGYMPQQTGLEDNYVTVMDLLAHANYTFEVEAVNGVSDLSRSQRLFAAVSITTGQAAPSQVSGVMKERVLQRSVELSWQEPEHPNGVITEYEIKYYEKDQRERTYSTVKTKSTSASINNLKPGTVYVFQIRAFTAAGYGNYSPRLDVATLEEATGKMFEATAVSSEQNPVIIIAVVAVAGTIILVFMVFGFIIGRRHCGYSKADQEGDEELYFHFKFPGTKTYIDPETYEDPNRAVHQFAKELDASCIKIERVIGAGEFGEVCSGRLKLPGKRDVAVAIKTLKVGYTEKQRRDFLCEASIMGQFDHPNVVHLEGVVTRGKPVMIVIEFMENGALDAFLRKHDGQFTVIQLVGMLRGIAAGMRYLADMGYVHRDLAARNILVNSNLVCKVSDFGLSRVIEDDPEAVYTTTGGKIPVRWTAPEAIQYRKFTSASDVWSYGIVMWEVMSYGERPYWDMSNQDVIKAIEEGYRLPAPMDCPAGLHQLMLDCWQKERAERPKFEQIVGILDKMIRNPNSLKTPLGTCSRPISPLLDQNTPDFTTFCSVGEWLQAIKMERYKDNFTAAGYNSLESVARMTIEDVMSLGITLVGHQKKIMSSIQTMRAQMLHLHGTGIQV
Sequence of Serine/threonine-protein kinase DCLK1 (Homo sapiens) (O15075 whole entry): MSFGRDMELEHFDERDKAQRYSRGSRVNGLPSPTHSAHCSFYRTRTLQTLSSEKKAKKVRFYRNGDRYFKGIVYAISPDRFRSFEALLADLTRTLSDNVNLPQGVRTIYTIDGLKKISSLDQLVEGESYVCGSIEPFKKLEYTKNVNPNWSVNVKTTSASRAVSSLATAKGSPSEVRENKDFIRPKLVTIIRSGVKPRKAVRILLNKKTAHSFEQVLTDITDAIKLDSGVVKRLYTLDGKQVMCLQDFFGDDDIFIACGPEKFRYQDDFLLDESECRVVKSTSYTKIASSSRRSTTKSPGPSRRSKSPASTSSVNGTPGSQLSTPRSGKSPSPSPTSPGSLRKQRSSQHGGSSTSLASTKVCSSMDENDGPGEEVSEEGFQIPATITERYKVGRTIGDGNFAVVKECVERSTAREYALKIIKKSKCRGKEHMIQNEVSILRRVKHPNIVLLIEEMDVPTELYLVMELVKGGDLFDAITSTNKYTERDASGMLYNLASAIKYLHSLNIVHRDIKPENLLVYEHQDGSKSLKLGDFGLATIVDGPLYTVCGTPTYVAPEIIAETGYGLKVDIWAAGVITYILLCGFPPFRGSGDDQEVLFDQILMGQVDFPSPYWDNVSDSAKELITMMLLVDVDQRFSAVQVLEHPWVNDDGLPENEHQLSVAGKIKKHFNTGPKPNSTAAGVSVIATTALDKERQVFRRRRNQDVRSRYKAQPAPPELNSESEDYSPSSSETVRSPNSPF
Sequence of AP2-associated protein kinase 1 (Homo sapiens) (Q2M2I8 whole entry, looked up): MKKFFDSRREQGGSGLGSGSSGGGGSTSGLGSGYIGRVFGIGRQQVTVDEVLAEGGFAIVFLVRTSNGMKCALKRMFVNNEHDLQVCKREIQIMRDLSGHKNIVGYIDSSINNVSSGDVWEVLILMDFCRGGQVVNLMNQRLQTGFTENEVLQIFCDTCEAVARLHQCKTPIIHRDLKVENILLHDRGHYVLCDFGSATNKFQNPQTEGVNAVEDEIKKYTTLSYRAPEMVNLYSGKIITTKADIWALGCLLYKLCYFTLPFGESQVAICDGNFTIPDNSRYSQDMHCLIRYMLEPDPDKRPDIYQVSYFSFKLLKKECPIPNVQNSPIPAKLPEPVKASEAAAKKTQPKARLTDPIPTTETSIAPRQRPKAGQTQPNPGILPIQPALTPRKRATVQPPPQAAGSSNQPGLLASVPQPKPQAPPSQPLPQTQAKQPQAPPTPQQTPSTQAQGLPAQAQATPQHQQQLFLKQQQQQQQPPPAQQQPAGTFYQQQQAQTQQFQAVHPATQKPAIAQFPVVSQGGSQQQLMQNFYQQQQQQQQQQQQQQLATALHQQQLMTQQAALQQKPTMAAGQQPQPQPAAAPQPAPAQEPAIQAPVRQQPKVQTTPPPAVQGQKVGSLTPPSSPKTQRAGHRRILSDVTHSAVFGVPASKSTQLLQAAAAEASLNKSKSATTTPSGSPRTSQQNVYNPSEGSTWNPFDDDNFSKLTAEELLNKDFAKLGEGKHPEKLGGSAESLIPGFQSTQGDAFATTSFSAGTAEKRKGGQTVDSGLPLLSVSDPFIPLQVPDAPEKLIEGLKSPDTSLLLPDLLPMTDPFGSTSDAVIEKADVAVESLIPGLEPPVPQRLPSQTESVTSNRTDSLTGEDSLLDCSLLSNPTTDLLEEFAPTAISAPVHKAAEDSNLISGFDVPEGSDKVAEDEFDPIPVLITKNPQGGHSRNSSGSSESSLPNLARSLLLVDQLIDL
Sequence of Casein kinase II subunit alpha' (Homo sapiens) (P19784 whole entry, looked up): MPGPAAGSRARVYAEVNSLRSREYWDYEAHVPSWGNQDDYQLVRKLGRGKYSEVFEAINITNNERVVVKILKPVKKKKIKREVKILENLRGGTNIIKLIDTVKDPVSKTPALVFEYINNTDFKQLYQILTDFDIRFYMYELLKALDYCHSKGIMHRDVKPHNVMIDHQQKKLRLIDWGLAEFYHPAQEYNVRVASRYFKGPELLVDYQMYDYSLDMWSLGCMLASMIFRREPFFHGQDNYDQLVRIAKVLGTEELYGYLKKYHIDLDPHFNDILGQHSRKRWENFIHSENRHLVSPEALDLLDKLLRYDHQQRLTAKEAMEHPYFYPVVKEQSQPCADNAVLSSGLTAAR

SMILES: Cc1ccc2c(Nc3ccc(Cl)cc3)nccc2c1Nc1ncccc1-c1ncnc2[nH]cnc12.Cl.Cl.Cl
- Activity [1]: 96%
- Activity [2]: 80%
- inhibition in vivo at 2 mg/kg (Mus musculus): 69%
- Activity [3]: 100%
- Activity [4]: 100%
- Activity [5]: 100%
- Activity [6]: 100%
- Activity [7]: 92%
- Activity [8]: 92%
- Activity [9]: 99%
- Activity [10]: 87%
- Activity [11]: 100%
- Activity [12]: 100%
- Activity [13]: 100%
- Activity [14]: 89%
- Activity [15]: 100%
- Activity [16]: 100%
- Activity [17]: 6.6%
- Activity [18]: 100%
- Activity [19]: 100%
- half-life [20]: 3.3 h
- Activity [21]: 100%
- Activity [22]: 100%
- Activity [23]: 98%
- Activity [24]: 97%
- Activity [25]: 47%
- Activity [26]: 85%
- Activity [27]: 100%
- Activity [28]: 93%
- Activity [29]: 86%
- Activity [30]: 92%
- Activity [31]: 100%
- Activity [32]: 96%
- Activity [33]: 4.7%
- Activity [34]: 92%
- Activity [35]: 92%
- Activity [36]: 100%
